Laboratory results reported in patent US9113629B2, “4-amino-6-(4-substituted-phenyl)-picolinates and 6-amino-2-(4-substituted-phenyl)-pyrimidine-4-carboxylates and their use as herbicides” (DOW AGROSCIENCES LLC, priority 2013, dated 2015).
Where two headings read alike, the source gives them in different places.

Legend:
[1] = test system: Key Grass and Sedge Weeds as well as Grass Crops; assay: Post-emergent Test II herbicidal activity (Table 6); type: in vivo; settings: post-emergence, 336 h, application rate 140 g ai/ha
Experimental: (§1) Post-emergent Test II: Seeds or nutlets of the desired test plant species were planted in Sun Gro Metro-Mix® 360 planting mixture, which typically has a pH of 6.0 to 6.8 and an organic matter content of about 30 percent, in plastic pots with a surface area of 64 square centimeters. When required to ensure good germination and healthy plants, a fungicide treatment and/or other chemical or physical treatment was applied. The plants were grown for 7-21 d in a greenhouse with an approximate 15 h photoperiod which was maintained at about 23-29° C. during the day and 22-28° C. during the night. Nutrients and water were added on a regular basis and supplemental lighting was provided with overhead metal halide 1000-Watt lamps as necessary. The plants were employed for testing when they reached the first or second true leaf stage.
(§2) A weighed amount, determined by the highest rate to be tested, of each test compound was placed in a 25 mL glass vial and was dissolved in 4 mL of a 97:3 v/v mixture of acetone and DMSO to obtain concentrated stock solutions. […] The concentrated stock solutions obtained were diluted with 20 mL of an aqueous mixture containing acetone, water, isopropyl alcohol, DMSO. Atplus 411F crop oil concentrate, and Triton® X-155 surfactant in a 48.5:39:10:1.5:1.0:0.02 v/v ratio to obtain spray solutions containing the highest application rates. Additional application rates were obtained by serial dilution of 12 mL of the high rate solution into a solution containing 2 mL of 97:3 v/v mixture of acetone and DMSO and 10 mL of an aqueous mixture containing acetone, water, isopropyl alcohol, DMSO, Atplus 411F crop oil concentrate, and Triton X-155 surfactant in a 48.5:39:10:1.5:1.0:0.02 v/v ratio to obtain ½×, ¼×, ⅛× and 1/16× rates of the high rate. Compound requirements are based upon a 12 mL application volume at a rate of 187 liters per hectare (L/ha). Formulated compounds were applied to the plant material with an overhead Mandel track sprayer equipped with 8002E nozzles calibrated to deliver 187 L/ha over an application area of 0.503 square meters at a spray height of 18 inches (43 cm) above the average plant canopy height. Control plants were sprayed in the same manner with the solvent blank.
(§3) The treated plants and control plants were placed in a greenhouse as described above and watered by subirrigation to prevent wash-off of the test compounds. After 14 d, the condition of the test plants as compared with that of the untreated plants was determined visually and scored on a scale of 0 to 100 percent where 0 corresponds to no injury and 100 corresponds to complete kill.

[2] = test system: Key Broadleaf Weed and Crop Species; assay: Post-emergent Test II herbicidal activity (Table 5); type: in vivo; settings: post-emergence, 336 h, 140 g ai/ha, post-emergent, 14 days after application
Experimental: as §1, §2, §3

[3] = Triticum aestivum, TRZSS (wheat), read-out: Visual Growth Reduction (%) 14 Days After Application, TRZSS
[4] = CYPES: yellow nutsedge (Cyperus esculentus), read-out: Visual Growth Reduction (%) 14 Days After Application, CYPES
[5] = DIGSA: crabgrass (Digitaria sanguinalis), read-out: Visual Growth Reduction (%) 14 Days After Application, DIGSA
[6] = ECHCG: barnyardgrass (Echinochloa crus-galli), read-out: Visual Growth Reduction (%) 14 Days After Application, ECHCG
[7] = ORYSA: rice (Oryza sativa), read-out: Visual Growth Reduction (%) 14 Days After Application, ORYSA
[8] = SETFA: giant foxtail (Setaria faberi), read-out: Visual Growth Reduction (%) 14 Days After Application, SETFA
[9] = SORVU: grain sorghum (Sorghum vulgare), read-out: Visual Growth Reduction (%) 14 Days After Application, SORVU
[10] = ZEAMX: maize, corn (Zea mays), read-out: Visual Growth Reduction (%) 14 Days After Application, ZEAMX
[11] = ABUTH: velvetleaf (Abutilon theophrasti), read-out: Visual Growth Reduction (%) 14 Days After Application ABUTH
[12] = AMARE: redroot pigweed (Amaranthus retroflexus), read-out: Visual Growth Reduction (%) 14 Days After Application AMARE
[13] = BRSNN: oilseed-rape, canola (Brassica napus), read-out: Visual Growth Reduction (%) 14 Days After Application BRSNN
[14] = CHEAL: lambsquarters (Chenopodium album), read-out: Visual Growth Reduction (%) 14 Days After Application CHEAL
[15] = EPHHL: wild poinsettia (Euphorbia heterophylla), read-out: Visual Growth Reduction (%) 14 Days After Application EPHHL
[16] = HELAN: sunflower (Helianthus annuus), read-out: Visual Growth Reduction (%) 14 Days After Application HELAN
[17] = VIOTR: wild pansy (Viola tricolor), read-out: Visual Growth Reduction (%) 14 Days After Application VIOTR

SMILES	melting point	pest or weed control at 140 g/ha [1, 3]	pest or weed control at 140 g/ha [1, 4]	pest or weed control at 140 g/ha [1, 5]	pest or weed control at 140 g/ha [1, 6]	pest or weed control at 140 g/ha [1, 7]	pest or weed control at 140 g/ha [1, 8]	pest or weed control at 140 g/ha [1, 9]	pest or weed control at 140 g/ha [1, 10]	pest or weed control at 140 g/ha [2, 11]	pest or weed control at 140 g/ha [2, 12]	pest or weed control at 140 g/ha [2, 13]	pest or weed control at 140 g/ha [2, 14]	pest or weed control at 140 g/ha [2, 15]	pest or weed control at 140 g/ha [2, 16]	pest or weed control at 140 g/ha [2, 17]
COC(=O)c1nc(-c2ccc(OC(F)F)cc2)c(Cl)c(N)c1Cl [Compound 15]	102.4 to 103.6 °C	0 to 29%	0 to 29%	0 to 29%	0 to 29%	0 to 29%	0 to 29%	0 to 29%	0 to 29%	85 to 94%	0 to 29%	0 to 29%	30 to 44%	0 to 29%	95 to 100%	0 to 29%
COc1c(N)nc(-c2ccc(C#N)cc2)nc1C(=O)O [Compound 25]	185.2 to 186.1 °C	0 to 29%	0 to 29%	0 to 29%	0 to 29%	0 to 29%	0 to 29%	0 to 29%	0 to 29%	0 to 29%	0 to 29%	0 to 29%	0 to 29%	0 to 29%	0 to 29%	0 to 29%
N#Cc1ccc(-c2nc(C(=O)O)c(Cl)c(N)c2Cl)cc1 [Compound 14]	178 to 179.7 °C	0 to 29%	0 to 29%	0 to 29%	0 to 29%	0 to 29%	0 to 29%	0 to 29%	0 to 29%	0 to 29%	0 to 29%	0 to 29%	95 to 100%	0 to 29%	95 to 100%	0 to 29%
Nc1c(Cl)c(C(=O)O)nc(-c2ccc(OC(F)F)cc2)c1Cl [Compound 33]	146.3 to 147.6 °C	0 to 29%	0 to 29%	0 to 29%	0 to 29%	0 to 29%	0 to 29%	0 to 29%	0 to 29%	60 to 74%	0 to 29%	30 to 44%	0 to 29%	0 to 29%	95 to 100%	0 to 29%
C#Cc1ccc(-c2nc(N)c(OC)c(C(=O)OC)n2)cc1 [Compound 166]	148.2 to 150.9 °C	0 to 29%	45 to 59%	0 to 29%	0 to 29%	0 to 29%	0 to 29%	0 to 29%	45 to 59%	0 to 29%	95 to 100%	0 to 29%	60 to 74%	95 to 100%	85 to 94%	0 to 29%
COc1c(N)nc(-c2ccc(OC(F)(F)F)cc2)nc1C(=O)O [Compound 102]	171 to 172.1 °C	0 to 29%	0 to 29%	0 to 29%	0 to 29%	0 to 29%	0 to 29%	0 to 29%	0 to 29%	0 to 29%	0 to 29%	0 to 29%	0 to 29%	95 to 100%	60 to 74%	0 to 29%
COC(=O)c1nc(-c2ccc(OC(F)(F)F)cc2)nc(N)c1OC [Compound 30]	122 to 123.6 °C	0 to 29%	0 to 29%	0 to 29%	0 to 29%	0 to 29%	0 to 29%	0 to 29%	0 to 29%	45 to 59%	0 to 29%	0 to 29%	0 to 29%	95 to 100%	0 to 29%	0 to 29%
COC(=O)c1nc(-c2ccc(C#N)cc2)c(Cl)c(N)c1Cl [Compound 1]	133.4 to 134.8 °C	0 to 29%	30 to 44%	0 to 29%	0 to 29%	0 to 29%	0 to 29%	0 to 29%	0 to 29%	60 to 74%	60 to 74%	0 to 29%	85 to 94%	0 to 29%	95 to 100%	0 to 29%
COC(=O)c1nc(-c2ccc(C#N)cc2)nc(N)c1OC [Compound 130]	185.1 to 186.9 °C	0 to 29%	0 to 29%	0 to 29%	0 to 29%	0 to 29%	0 to 29%	0 to 29%	0 to 29%	0 to 29%	0 to 29%	0 to 29%	0 to 29%	95 to 100%	85 to 94%	0 to 29%
